Tests used:
Mustard (Sinapis alba) = test: Soil incorporation (attaclay/sand dust), growth regulatory or herbicidal effects, mustard; format: in vivo; conditions: 504 h, soil incorporation 130 ppm, 21 days, 0=no effect, 100=complete kill/suppression, read-out: growth regulatory or herbicidal effect score
Source text: (§1) The compounds listed below were each formulated as an attaclay/sand dust and incorporated into John Innes I potting compost at a rate equivalent to 26 parts per million weight/volume of active ingredient to soil and placed in anodised aluminium pans, 19 cm long×9.5 cm wide×5.0 cm deep. This rate is approximately equivalent to a soil surface application of 11.2 kg active ingredient/hectare cultivated to a depth of 5 cm. Seeds of the species listed below were sown in the treated soil, watered and placed in a controlled environment room (22° C.; 65-85% relative humidity; 14 hours per day artificial illumination at 13,000 lux) for 21 days. The plants were then visually assessed for any growth regulatory or herbicidal effects. All differences from an untreated control were scored on a scale from 0-100, where 0 signifies no effect and 100 signifies complete kill.
(§2) The compounds listed below were tested according to the procedure of Examples 56-60 but at 130 parts per million weight/volume of active ingredient to soil. This rate is approximately equivalent to a soil surface application of 56 kg active ingredient per hectare cultivated to a depth of 5 cm.
(§3) The product of Example 95 was tested according to the procedure of Examples 56-60 but at 130 and 26 parts per million weight/volume. The results were as follows:
(§4) N-(2-oxopropyl)-2'-chloro-6'-methyl-methanesulphonanilide, formulated as an attaclay/sand dust, was incorporated in John Innes I potting compost at a rate equivalent to 130 parts per million weight/volume of active ingredient to soil and placed in anodised aluminium pans, 19 cm long×9.5 cm wide×5.0 cm deep. These rates are approximately equivalent to a soil surface application of 56 kg active ingredient per hectare cultivated to a depth of 5 cm. Seeds of Peas, Mustard, Linseed, Maize, Oats and Ryegrass were sown in the treated soil, watered and placed in a controlled environment room (22° C.; 65-85% relative humidity; 14 hours artificial illumination at 13000 lux) for 21 days.
(§5) The plants were then visually assessed for any growth regulatory or herbicidal effects. All differences from an untreated control were scored on a scale from 0-100, where 0 signifies no effect and 100 signifies complete suppression.

Maize (Zea mays) = test: Soil incorporation (attaclay/sand dust), growth regulatory or herbicidal effects, maize; format: in vivo; conditions: 504 h, soil incorporation 130 ppm, 21 days, 0=no effect, 100=complete kill/suppression, read-out: growth regulatory or herbicidal effect score
Source text: as §1, §2, §3, §4, §5

Peas (Pisum sativum) = test: Soil incorporation (attaclay/sand dust), growth regulatory or herbicidal effects, peas; format: in vivo; conditions: Lathyrus oleraceus, 504 h, soil incorporation 130 ppm, 21 days, 0=no effect, 100=complete kill/suppression, read-out: growth regulatory or herbicidal effect score
Source text: as §1, §2, §3, §4, §5

Oats (Avena sativa) = test: Soil incorporation (attaclay/sand dust), growth regulatory or herbicidal effects, oats; format: in vivo; conditions: 504 h, soil incorporation 130 ppm, 21 days, 0=no effect, 100=complete kill/suppression, read-out: growth regulatory or herbicidal effect score
Source text: as §1, §2, §3, §4, §5

[1] = system: Linseed (Linum usitatissimum); test: Soil incorporation (attaclay/sand dust), growth regulatory or herbicidal effects, linseed; format: in vivo; conditions: 504 h, soil incorporation 130 ppm, 21 days, 0=no effect, 100=complete kill/suppression, read-out: growth regulatory or herbicidal effect score
Source text: as §1, §2, §3, §4, §5

[2] = system: Ryegrass (Lolium perenne); test: Soil incorporation (attaclay/sand dust), growth regulatory or herbicidal effects, ryegrass; format: in vivo; conditions: 504 h, soil incorporation 130 ppm, 21 days, 0=no effect, 100=complete kill/suppression, read-out: growth regulatory or herbicidal effect score
Source text: as §1, §2, §3, §4, §5

Pythium ultimum [3] = test: Cabbage seedling emergence in soil infected with Pythium ultimum; format: in vivo, Pythium ultimum (on cabbage, variety Flower of Spring); conditions: 6 days, 25° C.
Description: (§6) A one week old maize meal/sand culture of the damping-off disease organism Pythium ultimum was thoroughly mixed by hand with clean sterile John Innes No. 1 potting compost in the ratio of 3 kg culture to 12 liters of soil. The infected soil was then left for approximately 18 hours before use. Each of the compounds listed below was ground together with a wetting agent, Tween 20 (1% of final volume), until a solution or fine suspension was produced which was then diluted with distilled water to give 160 ml of solution containing 1500, 500, 150 or 50 ppm active ingredient. 15 ml aliquots of this solution were added to 75 g portions of the soil infected with Pythium ultimum which were contained in small plastic cartons, 60 mm diameter×55 mm high. Fifteen cabbage seeds, variety Flower of Spring, were placed in a circular depression in the treated infected soil, recovered, and the whole sealed with a plastic cap. The cartons were then placed in a constant temperature room at 25° C.±1° C. Four replications per treatment were made with one additional treatment where seeds were sown in soil which was chemically treated only, i.e. there was no infection. This latter treatment was included to measure the direct effect of the chemical on the germination of the seed. After six days the cartons were removed from the controlled temperature chamber and assessed for degree of fungal growth on the soil surface and percentage of seedling emergence. The results of both these assessments are expressed in a 0-8 scale as follows:
(§7) One week old maize meal/sand culture of the damping-off disease organism Pythium ultimum was thoroughly mixed by hand with clean sterile John Innes No. 1 potting compost in the ratio of 3 kg culture to 12 liters of soil. This infected soil was then left for approximately 18 hours before use. The compounds listed in the Table below were each ground with the wetting agent Tween 20 (1% of final volume), until a solution or fine suspension was produced, which was then diluted with distilled water to give 160 ml of solution containing 1500 or 500 parts per million (ppm) active ingredient. 15 ml aliquots of this solution were added to 75 g portions of the soil infected with Pythium ultimum which were contained in small plastic cartons, 60 mm diameter×55 mm high.
(§8) Fifteen cabbage seeds, variety Flower of Spring, were placed in a circular depression in the treated infected soil, recovered, and the whole sealed with a plastic cap. The cartons were then placed in a constant temperature room at 25° C.±1° C. Four replications per treatment were made, with one additional treatment where seeds were sown in soil which was chemically treated only, i.e. there was no infection. This latter treatment was included to measure the direct effect of the chemical on the germination of the seed.
(§9) After six days, the cartons were removed from the controlled temperature chamber and assessed for degree of fungal growth on the soil surface and percentage of seedling emergence. The results of both these assessments are expressed in a 0-8 scale as follows:
(§10) N-(2-oxopropyl)-3',4'-dimethyl-methanesulphonanilide was tested at a dose rate of 300 ppm in the test described in Examples 233 and 234. It gave a mycelial control score of 0 and a germination score of 3 whereas the untreated samples gave a score of 0 for both.

Pythium ultimum [4] = test: Fungal growth on the surface of soil infected with damping-off disease organism; format: in vivo; conditions: 6 days, 25° C.
Description: as §6, §7, §8, §9, §10

[5] = 300 ppm, 0-8 scale (Examples 233, 234, 268)

| SMILES | pest or weed control at 130 µg/mL (Mustard (Sinapis alba)) [%] | plant injury at 130 µg/mL (Maize (Zea mays)) [%] | pest or weed control at 130 µg/mL (Peas (Pisum sativum)) [%] | plant injury at 130 µg/mL (Oats (Avena sativa)) [%] | pest or weed control at 130 µg/mL [1] [%] | pest or weed control at 130 µg/mL [2] [%] | Germination Score (Pythium ultimum [3]; [5]) | Mycelial Control Score (Pythium ultimum [4]; [5]) | Germination Score (Pythium ultimum [3]; 30 ppm, 0-8 scale) | Germination Score (Pythium ultimum [3]; 100 ppm, 0-8 scale) | Germination Score (Pythium ultimum [3]; 300 ppm, 0-8 scale) | Mycelial Control Score (Pythium ultimum [4]; 30 ppm, 0-8 scale) | Mycelial Control Score (Pythium ultimum [4]; 100 ppm, 0-8 scale) | Mycelial Control Score (Pythium ultimum [4]; 300 ppm, 0-8 scale) |
| --- | --- | --- | --- | --- | --- | --- | --- | --- | --- | --- | --- | --- | --- | --- |
| CCOC(=O)CN(c1ccc(Cl)c(Cl)c1)S(C)(=O)=O [Example 18] | 40 | 30 | 40 | 0 | 80 | 30 |  |  |  |  |  |  |  |  |
| CS(=O)(=O)N(CC#N)c1ccc(Cl)cc1 [Example 45] | 100 | 30 | 20 | 70 | 90 | 80 |  |  |  |  |  |  |  |  |
| CCN(CC)C(=O)CN(c1c(C)cccc1C)S(C)(=O)=O [Example 36] | 100 | 20 | 20 | 20 | 40 | 20 |  |  |  |  |  |  |  |  |
| CC1(CN(c2ccc(Cl)cc2)S(C)(=O)=O)OCCO1 [Example 228, N-[(2-methyl-1,3-dioxolan-2-yl)methyl]-4'-chloro-methanesulphonanilide] |  |  |  |  |  |  | 0 (<20% inhibition) | 8 (>94% inhibition) |  |  |  |  |  |  |
| CCOC(=O)CN(c1c(C)cccc1C)S(C)(=O)=O [Example 14] | 100 | 40 | 30 | 20 | 90 | 30 |  |  |  |  |  |  |  |  |
| CS(=O)(=O)N(CC#N)c1cccc(C(F)(F)F)c1 [Example 48] | 100 | 40 | 50 | 80 | 100 | 90 |  |  |  |  |  |  |  |  |
| CC(C(=O)O)N(c1ccc(Cl)c(Cl)c1)S(C)(=O)=O (centres unmarked) [Example 4] | 70 | 70 | 70 | 40 | 90 | 0 |  |  |  |  |  |  |  |  |
| CC(C)c1ccccc1N(CC#N)S(C)(=O)=O [Example 47] | 80 | 10 | 10 | 30 | 100 | 50 |  |  |  |  |  |  |  |  |
| CCc1ccccc1N(C(C)C(=O)O)S(C)(=O)=O (centres unmarked) [Example 5] | 50 | 30 | 30 | 30 | 70 | 20 |  |  |  |  |  |  |  |  |
| CCOC(=O)CN(c1cccc(C(F)(F)F)c1)S(C)(=O)=O [Example 17] | 40 | 0 | 40 | 0 | 90 | 0 |  |  |  |  |  |  |  |  |
| CCOC(=O)CN(c1ccc(Cl)cc1)S(C)(=O)=O [Example 12] | 70 | 0 | 40 | 5 | 80 | 5 |  |  |  |  |  |  |  |  |
| Cc1cccc(C)c1N([C@@H](C)C(=O)O)S(C)(=O)=O [Example 7, N-(2,6-dimethylphenyl)-N-methanesulphonyl alanine] | 70 | 30 | 20 | 30 | 50 | 0 |  |  |  |  |  |  |  |  |
| CCS(=O)(=O)N(c1c(C)cccc1C)C(C)C(=O)O (centres unmarked) [Example 9] | 70 | 30 | 50 | 20 | 80 | 20 |  |  | 1 (20-34% inhibition) | 5 (65-74% inhibition) | 5 (65-74% inhibition) | 0 (<20% inhibition) | 0 (<20% inhibition) | 0 (<20% inhibition) |
| CCN(CC)C(=O)CN(c1ccc(Cl)cc1)S(C)(=O)=O [Example 35] | 100 | 20 | 20 | 20 | 40 | 20 |  |  |  |  |  |  |  |  |
| CC(=O)CN(c1c(C)cccc1Cl)S(C)(=O)=O [Example 210, N-2-oxopropyl-2'-chloro-6'-methyl-methanesulphonanilide] | 100 | 5 | 30 | 60 | 80 | 70 |  |  |  |  |  |  |  |  |

From US4309559A, “Sulphonamides useful as pesticides” (FBC Limited, priority 1977, dated 1982)
